Like-named read-outs stand apart in the source and are kept apart here.
What was measured:
[1] = tested on: DC-3F hamster lung fibroblast cell line; assay: SRB cytotoxicity, DC-3F; format: cell-based
Outline: (§1)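 Monolayer cultures grown in RPMI 1640-10% FBS at 37 °C, 5% CO2, with resistant sublines kept under their selecting agent. Cytotoxicity determined by SRB protein staining (TCA fixation, absorbance 570 nm) in duplicate at six to seven drug concentrations. ED50 obtained by median-effect plot analysis.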

DC-3F/ADX = assay: cells; format: cell-based, hamster
Outline: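 Hamster lung fibroblast DC-3F sublines selected with actinomycin D (ADII moderate, ADX very strong MDR), maintained under selecting agent in RPMI 1640-10% FBS at 37° C. Monolayers exposed to six to seven drug concentrations in duplicate, TCA-fixed, stained with 0.4% SRB; absorbance 570 nm, analyzed by median-effect plot.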

murine leukemic P388/0 = assay: XTT cytotoxicity, P388/0; format: cell-based
Outline: (§2)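 Suspension leukemic cells (CCRF-CEM, P388 and drug-resistant sublines kept under the selecting agent) were seeded at 5×10^4 cells/mL in RPMI-1640 with 10% FBS at 37 °C. After 72 h drug exposure in duplicate, PMS-XTT was added for 4 h. Absorbance was read at 450 and 630 nm.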

P388/Adr = assay: cells; format: cell-based, murine; details: for IC50: 72 h
Outline: as §2

SK-N-FI = assay: cells; format: cell-based, human; details: for IC50: 72 h
Outline: as §1

[2] = tested on: Human CCRF-CEM/VBL Xenograft; assay: CCRF-CEM/VBL xenograft in scid mice; format: in vivo, CB-17 scid mice
B16 Melanoma = format: in vivo, B6D2F1 mice
Description: Body weight was determined at 0, 2, 4, 6, 8, 10 and 12 days. […] Injections were started on day 1. […] Body weight was determined at 0, 2, 4, 6, 8, 10 and 12 days. […] Injections were started on day 1.

[3] = tested on: PC-3 Human Prostate Carcinoma; assay: PC-3 xenograft; format: in vivo, nude mice; details: for Average Body Weight, Day 5: initial weight
[4] = Table 1C, SRB, 72 h, read-out: IC50
[5] = dose 0.7 i.p. QD d7-10,14,15, day 12
[6] = dose 0.7 i.p. QD d7-10,14,15, day 17
[7] = dose 0.7 i.p. QD d7-10,14,15, day 22
[8] = dose 1.0 i.p. QD d7-10,14,15, day 12
[9] = dose 1.0 i.p. QD d7-10,14,15, day 17
[10] = dose 1.0 i.p. QD d7-10,14,15, day 22
[11] = dose 2.0 i.p. QD d7-10,14,15, day 12
[12] = dose 2.0 i.p. QD d7-10,14,15, day 17
[13] = dose 2.0 i.p. QD d7-10,14,15, day 22
[14] = dose 4.0 i.p. QD d7-10,14,15, day 12
[15] = dose 4.0 i.p. QD d7-10,14,15, day 17
[16] = dose 4.0 i.p. QD d7-10,14,15, day 22
[17] = 6 hr i.v. infusion: dEpoB 40, Taxol 24 mg/kg
[18] = PC-3 Prostate, dEpoB 40 mg/kg Q2D x 3, Taxol 15 mg/kg Q2D x 3
[19] = dEpoB 30 mg/kg 18 hr i.v. infusion, Taxol 16 mg/kg 6 hr infusion, VBL 2 and VP-16 25 mg/kg i.v. inj

**Q.** Which results are given for `C/C(=C\c1csc(C)n1)[C@@H]1C[C@@H]2O[C@]2(C)CCC[C@H](C)[C@H](O)[C@@H](C)C(=O)C(C)(C)[C@@H](O)CC(=O)O1` [Epothilone B, epothilone B]?
**A.** IC50 [1, 4]: 0.0006 µM; fold resistance vs parent DC-3F (DC-3F/ADX; DC-3F/ADX cells, listed as EpoB): 28 fold; folds of resistance (IC50 ratio vs parent cell line) (DC-3F/ADX; Table 1C, DC-3F/ADX vs DC-3F): (28x); IC50 (DC-3F/ADX; [4]): 0.017 µM; IC50 (murine leukemic P388/0; Table 1C, XTT, 72 h, read-out: IC50): 0.00029 µM; folds of resistance (IC50 ratio vs parent cell line) (P388/Adr; Table 1C, P388/Adr vs P388/O): (5.5x); IC50 (P388/Adr; Table 1C, XTT, read-out: IC50): 0.0016 µM; fold resistance vs parent SK-N-As (SK-N-FI; SK-N-F1 cells): 25 fold; folds of resistance (IC50 ratio vs parent cell line) (SK-N-FI; Table 1C, SK-N-FI vs SK-N-As): (25x); IC50 (SK-N-FI; Table 1C, SRB, read-out: IC50): 0.01 µM; mice died of drug toxicity ([2]; Epo B dose 1.0 i.p., 7 mice, day 17): ^6.One mouse died of drug toxicity on day 17.; Average weight change ([2]; dose 0.7 i.p. QD d7-10,14,15, day 7): +0.1; Average tumor volume (control = 1.00) [2, 5]: 0.32; Average weight change [2, 5]: −0.7; Average tumor volume (control = 1.00) [2, 6]: 0.40; Average weight change [2, 6]: −1.0; Average tumor volume (control = 1.00) [2, 7]: 0.33; Average weight change [2, 7]: −0.2; Average weight change ([2]; dose 1.0 i.p. QD d7-10,14,15, day 7): −0.2; Average tumor volume (control = 1.00) [2, 8]: 0.41; Average weight change [2, 8]: −1.3; Average tumor volume (control = 1.00) [2, 9]: 0.27; Average weight change [2, 9]: −2.1; Average tumor volume (control = 1.00) [2, 10]: 0.31; Average weight change [2, 10]: −0.5; Average Tumor Volume (T/C) (B16 Melanoma; 0.4 mg/kg QD × 6 from day 1, day 7): 1.07; # Mice Died (B16 Melanoma; 0.8 mg/kg QD × 5 from day 1): 5/8; Average Tumor Volume (T/C) (B16 Melanoma; 0.8 mg/kg QD × 5 from day 1, day 9): 0.46; Therapeutic effect Rank Order (B16 Melanoma; B16 Melanoma, i.p.): dEpoB > Taxol ® >> EpoB

**Q.** How did the IC50 ([1]; Mesocricetus auratus, DC3F, 72 h, Table 1C, SRB) turn out when `CC(=O)O[C@H]1C(=O)[C@@]2(C)[C@H]([C@H](OC(=O)c3ccccc3)[C@]3(O)C[C@H](OC(=O)[C@H](O)[C@@H](NC(=O)c4ccccc4)c4ccccc4)C(C)=C1C3(C)C)[C@]1(OC(C)=O)CO[C@@H]1C[C@@H]2O` [Taxol ®, paclitaxel] was run?
**A.** The IC50 was 0.095 µM.

**Q.** And the IC50 ([1]; Mesocricetus auratus, DC3F, Table 3)?
**A.** The IC50 was 0.0947 µM.

**Q.** What about the IC50 ([1]; Mesocricetus auratus, DC3F, relative potency ordering) of the same compound?
**A.** Its IC50 is 0.09 µM.

**Q.** And the IC50 (DC-3F/ADX; DC3F/ADX, 72 h, Table 1C, SRB)?
**A.** Its IC50 is 32 µM.

**Q.** What about the IC50 (DC-3F/ADX; DC3F/ADX, Table 3) of the same compound?
**A.** The IC50 was 32 µM.

**Q.** What about the IC50 (DC-3F/ADX; DC3F/ADX, relative potency ordering) of the same compound?
**A.** Its IC50 is 32 µM.

**Q.** What about the IC50 (murine leukemic P388/0; Mus musculus, P388, 72 h) of the same compound?
**A.** Its IC50 is 0.0029 µM.

**Q.** And the IC50 (P388/Adr; Mus musculus, P388/ADR)?
**A.** Its IC50 is 0.326 µM.

**Q.** What about the IC50 (SK-N-FI; Homo sapiens, SK-N-FI) of the same compound?
**A.** Its IC50 is 0.13 µM.

**Q.** What about the Average weight change ([2]; dose 2.0 i.p. QD d7-10,14,15, day 7) of the same compound?
**A.** The Average weight change was 0.

**Q.** What about the “Average tumor volume (control = 1.00)” value [2, 11] of the same compound?
**A.** Its value is 0.60.

**Q.** What about the Average weight change [2, 11] of the same compound?
**A.** The Average weight change was −0.9.

**Q.** What about the “Average tumor volume (control = 1.00)” value [2, 12] of the same compound?
**A.** Its value is 0.58.

**Q.** What about the Average weight change [2, 12] of the same compound?
**A.** Its Average weight change is −1.5.

**Q.** And the “Average tumor volume (control = 1.00)” value [2, 13]?
**A.** Its value is 0.70.

**Q.** And the Average weight change [2, 13]?
**A.** Its Average weight change is −0.1.

**Q.** And the Average weight change ([2]; dose 4.0 i.p. QD d7-10,14,15, day 7)?
**A.** Its Average weight change is 0.

**Q.** And the “Average tumor volume (control = 1.00)” value [2, 14]?
**A.** Its value is 0.79.

**Q.** And the Average weight change [2, 14]?
**A.** The Average weight change was −1.4.

**Q.** What about the “Average tumor volume (control = 1.00)” value [2, 15] of the same compound?
**A.** Its value is 0.55.

**Q.** What about the Average weight change [2, 15] of the same compound?
**A.** Its Average weight change is −1.6.

**Q.** And the “Average tumor volume (control = 1.00)” value [2, 16]?
**A.** Its value is 0.41.

**Q.** What about the Average weight change [2, 16] of the same compound?
**A.** Its Average weight change is −0.9.

**Q.** And the “# Mice Died” value (B16 Melanoma; B6D2F1, mouse, in vivo)?
**A.** Its value is 0/8.

**Q.** And the “Average Body Weight (change), Day 9” value [3, 17]?
**A.** The value was -2.2 g.

**Q.** And the “Average Body Weight (change), Day 11” value [3, 17]?
**A.** The value was -2.8 g.

**Q.** And the “Average Body Weight (change), Day 13” value [3, 17]?
**A.** Its value is -0.8 g.

**Q.** What about the “Average Tumor Size (TC), Day 9” value [3, 17] of the same compound?
**A.** Its value is 0.18 TC.

**Q.** And the “Average Tumor Size (TC), Day 11” value [3, 17]?
**A.** The value was 0.05 TC.

**Q.** And the “Average Tumor Size (TC), Day 13” value [3, 17]?
**A.** The value was 0.06 TC.

**Q.** And the “Tumor Disappearance” value [3, 17]?
**A.** Its value is 2/4.

**Q.** What about the “Lowest Average Tumor Size (T/C)” value [3, 18] of the same compound?
**A.** The value was 0.02 T/C.

**Q.** And the “Tumor Disappearance” value [3, 18]?
**A.** Its value is 0.

**Q.** And the “Average Body Weight (change), Day 9” value [3, 19]?
**A.** Its value is -1.1 g.

**Q.** And the “Average Body Weight (change), Day 11” value [3, 19]?
**A.** Its value is -0.9 g.

**Q.** What about the “Average Body Weight (change), Day 13” value [3, 19] of the same compound?
**A.** Its value is “+0.4 g”.

**Q.** And the “Average Tumor Size (TC), Day 9” value [3, 19]?
**A.** The value was 0.34 TC.

**Q.** And the “Average Tumor Size (TC), Day 11” value [3, 19]?
**A.** The value was 0.09 TC.

**Q.** What about the “Average Tumor Size (TC), Day 13” value [3, 19] of the same compound?
**A.** Its value is 0.02 TC.

**Q.** And the “Tumor Disappearance” value [3, 19]?
**A.** Its value is 0/4.

**Q.** And the “Average Body Weight, Day 5” value [3, 17]?
**A.** The value was 28.8 g.

**Q.** And the “Average Body Weight, Day 5” value [3, 19]?
**A.** The value was 26.6 g.

From patent US6603023B2 (priority 1996, dated 2003)
